According to PMC11643744, “New Conjugates of Vancomycin with Cell-Penetrating Peptides—Synthesis, Antimicrobial Activity, Cytotoxicity, and BBB Permeability Studies” (Molecules, 2024):
≈ marks a conversion by molar mass, not a printed value. Where “and” joins values, the source holds several entries; their conditions need not be identical. Identical values can stand only once. Like-named read-outs stand apart in the source and are kept apart here.

Tests used:
[1] = tested on: S. aureus MRSA (clinical isolate no 203); assay: microbe, parasite or virus in culture; assay type: cell-based, Staphylococcus aureus; settings: Staphylococcus aureus, read-out: MIC S. aureus MRSA
Procedure: (§1) The antimicrobial activity of the synthesized compounds was evaluated against four reference bacterial strains: Staphylococcus aureus (ATCC 29213), Enterococcus faecalis (ATCC 29212), Escherichia coli (ATCC 25922), and Pseudomonas aeruginosa (ATCC 27853), which are commonly used for determining antibacterial activity. In addition, two clinical strains, S. aureus (MRSA) and E. faecium (VRE), were included in the study. The bacterial strains were inoculated from Selectrol discs (Biomaxima SA, Lublin, Poland) onto blood agar (Graso Biotech, Starogard Gdański, Poland) and incubated at 37 °C for 24 h. Before testing, the strains were cultured aerobically on blood agar at 37 °C for 24 h.
(§2) The susceptibility of microorganisms to the synthesized compounds was determined using the broth microdilution assay, following the guidelines outlined by CLSI [30]. The final concentrations of the tested compounds in Mueller–Hinton broth, in 96-well plates (VWR International Sp. z o.o., Gdańsk, Poland), ranged from 0.125 to 256 mg/L. To prepare the bacterial suspension, bacteria from the overnight culture on blood agar were diluted in sterile 0.9% NaCl to achieve a turbidity equivalent to a 0.5 McFarland standard. The adjusted inoculum suspension was further diluted in Mueller–Hinton broth so that after inoculation, each well contained approximately 5 × 10^5 CFU/mL. Aliquots (5 µL) of bacterial suspension were added to each solution. The sterility control (containing the broth) and the growth control (containing the reference strain in broth without the tested compound) were also set up. The antibiotics vancomycin and gentamicin were used as a control. The plates were incubated at 37 °C under aerobic conditions. The results are expressed as the MIC of the tested compounds, which was defined as the lowest concentration at which no visible growth of bacteria (no turbidity) was observed. The assay was performed in triplicate.

S. aureus ATCC 29213 = assay: microbe, parasite or virus in culture; assay type: cell-based, Staphylococcus aureus; settings: Staphylococcus aureus
Procedure: as §1, §2

E. faecalis ATCC 29212 = assay: microbe, parasite or virus in culture; assay type: cell-based, Enterococcus faecalis; settings: Enterococcus faecalis
Procedure: as §1, §2

[2] = tested on: Pseudomonas aeruginosa (ATCC 27853); assay: Broth microdilution MIC, P. aeruginosa reference strain; assay type: cell-based
Procedure: as §1
The susceptibility of microorganisms to the synthesized compounds was determined using the broth microdilution assay, following the guidelines outlined by CLSI [30]. The final concentrations of the tested compounds in Mueller–Hinton broth, in 96-well plates (VWR International Sp. z o.o., Gdańsk, Poland), ranged from 0.125 to 256 mg/L. To prepare the bacterial suspension, bacteria from the overnight culture on blood agar were diluted in sterile 0.9% NaCl to achieve a turbidity equivalent to a 0.5 McFarland standard. […] The results are expressed as the MIC of the tested compounds, which was defined as the lowest concentration at which no visible growth of bacteria (no turbidity) was observed. […]

E. coli ATCC 25922 = assay: microbe, parasite or virus in culture; assay type: cell-based, Escherichia coli; settings: Escherichia coli, ATCC25922; reference strain
Procedure: as §1, §2

[3] = tested on: E. faecium VRE (clinical isolate UCK 7979384); assay: microbe, parasite or virus in culture; assay type: cell-based; settings: Enterococcus faecium, VRE, read-out: MIC E. faecium VRE
Procedure: as §1, §2

PAMPA-BBB assay = settings: 20 h incubation, mean ± SEM
Description: This assay utilized a 96-well plate assembly consisting of a filter plate pre-coated with polar brain lipids (donor plate) and a receiver plate (acceptor plate). The phospholipid mixture used to coat the membrane was extracted from porcine polar brain lipids, with the following composition: 12.6% phosphatidylcholine, 33.1% phosphatidylethanolamine, 18.5% phosphatidylserine, 4.1% phosphatidylinositol, 0.8% phosphatidic acid, and 30.9% of other compounds, including cerebrosides, sulfatides, and pigments.
In each well of the donor filtration plate (Multiscreen Filter Plate, PVDF with a pore size of 0.45 µm), 5 µL of the phospholipid mixture in n-dodecane (20 mg/mL) was carefully applied to form the artificial membrane. After coating, 200 µL of phosphate-buffered saline (PBS at pH 7.4) containing 5% dimethyl sulfoxide (DMSO) as a co-solvent, and the test compound (at a concentration of 20 µM) was added to each well of the donor plate (in triplicate). […] The plate lid was then replaced and the resulting assembled donor–acceptor plates were incubated at room temperature for 20 h. After this time, the donor plate was removed and solutions from each well of both acceptor and donor plates were collected for further analysis. The concentrations of the tested compounds were determined by LC-MS. The analysis was conducted by UHPLC-MS system (Shimadzu Nexera X2 with LCMS-2020 detector) using a ReproSil Pure 120 ODS-3 column (Dr. Maisch GmbH, 100 × 2 mm, 2.4 µm particle size) with several gradients of ACN with 0.1% FA and 0.05% TFA at a flow rate of 0.3 mL/min. The eluted solution was monitored by an ESI-MS detector operated in a selected ion monitoring mode (SIM). […] CE=CD×VD+CA×VA/VD+VA

S. aureus (ATCC 29213) = assay: Checkerboard assay, interaction of Van with CPP components (FICI); assay type: cell-based, Staphylococcus aureus; settings: Van alone
Procedure: To determine possible interactions between Van and the CPP components of the conjugates, fractional inhibitory concentrations (FICs) were calculated for the tested compounds (Prop-Tat (47–57) and Prop-Arg9) using the following formula: FICA = MICA(with B)/MICA, FICB = MICB(with A)/MICB. To determine MICA(with B) and MICB(with A), a checkerboard assay was carried out in 96-well microtiter plates. Each test was performed in duplicate. The concentration range was 1.07 to 8 µg/mL for Van, 2.13 to 16 µg/mL for Prop-Tat (47–58), and 8.54 to 64 µg/mL for Prop-Arg9. Aliquots of 5 μL of bacterial suspension (at a concentration of 10^7 CFU/mL) were added to each well of the 96-well plate containing 100 μL of test compounds in Mueller–Hinton broth. The bacterial strain used was S. aureus (ATCC 29213). The plates were then incubated at 37 °C for 24 h. […] FIC values for Van, Prop-Tat (47–57) and Prop-Arg9 were calculated as follows: FICVan = MICVan+Prop-Tat (47–57) or FICVan = MICVan+Prop-Arg9 divided by MIC of Van alone, FICProp-Tat (47–57) = MICProp-Tat (47–57)+Van divided by MIC of Prop-Tat (47–57) alone, and FICProp-Arg9 = MICProp-Arg9+Van divided by MIC of Prop-Arg9 alone. The FIC indexes (FICIs) were calculated for the tested compounds as the sum of FICA and FICB.

[4] = tested on: normal human fibroblasts, BJ line (CRL-2522); assay: Neutral red cytotoxicity assay; settings: 24 h
Procedure: Normal human fibroblasts, BJ line (CRL-2522™), Eagle’s Minimum Essential Medium (EMEM), and fetal bovine serum (FBS) were obtained from ATCC (Manassas, VA, USA). Cells were grown following ATCC guidelines in an EMEM medium supplemented with 10% FBS at 37 °C in a humidified atmosphere of 95% air and 5% CO2 in a HeraCell 150 incubator (Heraeus, Hanau, Germany).
The assay was performed as per previously published protocols with slight modifications. In brief, BJ cells were plated in 96-well tissue culture plates (Nest Scientific Biotechnology, Wuxi, China) at a density of 6 × 10^3 cells per well and allowed to attach for 24 h in EMEM supplemented with 10% FBS. After the incubation period, the medium was removed, and 10% dimethyl sulfoxide (DMSO)-treated cells (Sigma-Aldrich, St. Louis, MO, USA) were used as a positive control, while nontreated cells served as a negative control.
The cells were treated with peptides suspended in EMEM medium supplemented with 10% FBS and incubated for 24 h at 37 °C in a humidified atmosphere of 95% air and 5% CO2. After the incubation, the supernatants were discarded and replaced with 100 µL of non-supplemented EMEM containing 0.33% neutral red (Sigma-Aldrich) diluted 1:40. The cells were incubated for an additional 2 h at 37 °C. Following incubation, the neutral red medium was removed, and the cells were washed with 100 µL of phosphate-buffered saline (PBS) per well.
To extract the dye into the solution, the cells were treated with 150 µL of a solution containing 50% ethanol (Alchem, Torun, Poland), 49% distilled H2O, and 1% acetic acid (Alchem, Torun, Poland) and incubated under shaking at 37 °C for 10 min. Absorbance was measured at 540 nm using a Synergy H1 plate reader (BioTek Instruments, Winooski, VT, USA). The assay was performed in triplicate to ensure reproducibility.

Row | MIC ([1]; methicillin-resistant clinical isolate no 203) | MIC (S. aureus ATCC 29213; ATCC29213, reference strain, read-out: MIC S. aureus ATCC 29213) | MIC (E. faecalis ATCC 29212; ATCC29212, reference strain, read-out: MIC E. faecalis ATCC 29212) | MIC ([2]; Pseudomonas aeruginosa, ATCC27853, reference strain) [µM] | MIC (E. coli ATCC 25922) | MIC ([3]; vancomycin-resistant clinical isolate UCK 7979384) | SMILES | R, mass retention (PAMPA-BBB assay) [%] | MIC [1] | MIC (S. aureus ATCC 29213; ATCC29213, read-out: MIC S. aureus ATCC 29213) | MICA (S. aureus (ATCC 29213)) [µg/mL] | MIC (E. faecalis ATCC 29212; ATCC29212, read-out: MIC E. faecalis ATCC 29212) | inhibitory activity against P. aeruginosa ([2]; at the concentrations tested) | MIC [3] | concentration above which cytotoxicity was shown [4] | effect on cell viability ([4]; at concentrations up to 4 µg/mL)
1 | 0.48 µg/mL and 1 µM | 0.24 µg/mL and 0.5 µM | 7.8 µg/mL and 16.3 µM | 4.08 (≈ 1.95 µg/mL) | 1.95 µg/mL and 4.08 µM | 7.8 µg/mL and 16.3 µM | CNC(C)C1CCC(N)C(OC2C(N)CC(N)C(OC3OCC(C)(O)C(NC)C3O)C2O)O1 (stereo not drawn) [Gentamicin] | – | – | – | – | – | – | – | – | –
2 | – | – | – | – | – | – | CN[C@H](CC(C)C)C(=O)N[C@H]1C(=O)N[C@@H](CC(N)=O)C(=O)N[C@H]2C(=O)N[C@H]3C(=O)N[C@H](C(=O)N[C@H](C(=O)O)c4cc(O)cc(O)c4-c4cc3ccc4O)[C@H](O)c3ccc(c(Cl)c3)Oc3cc2cc(c3O[C@@H]2O[C@H](CO)[C@@H](O)[C@H](O)[C@H]2O[C@H]2C[C@](C)(N)[C@H](O)[C@H](C)O2)Oc2ccc(cc2Cl)[C@H]1O [Vancomycin] | 11.3 ± 3.4 | 1.5 µg/mL and 1.01 µM | 2 µg/mL and 1.35 µM | 2 | 8 µg/mL and 5.38 µM | resistant | > 256 µg/mL and > 172 µM | above 16 µg/mL | did not substantially affect cell viability
